Consider 45 molecules from patent publication US12528790B2, “Amide derivative having antiviral activity” (Shionogi & Co., Ltd., priority 2020, dated 2026).

Molecules are shown by their SMILES. A value given as a limit tells only on which side of the number the result lay.

One assay relates to RSV A2 strain. As to the kind of experiment: In vitro CPE (CytoPathic Effect) inhibition effect evaluation test, RSV type A. It counts as cell-based. The settings on record: human respiratory syncytial virus, HEp-2. The protocol:
The test sample is diluted in advance to an appropriate concentration with DMSO, and 3-fold series of serial dilutions were prepared on a 384-well plate (0.32 μL/well). HEp-2 cells (CCL-23; ATCC) adjusted at appropriate number (2.4×10^5 cells/mL) in 2% FBS E-MEM (prepared by adding kanamycin and FBS to Eagle's Minimum Essential Medium; Invitrogen) were added at 12.5 μL/well to the 384-well plate previously aliquoted with the test samples. The RSV A2 strain was diluted to an appropriate concentration in a culture medium and added to the 384-well plate containing the test sample at 12.5 μL/well. The culture medium was added additionally to the 384-well plate, and the test was started with 50 μL/well. Control wells were prepared with only virus-free culture medium. The plate was incubated in a 5% CO2 incubator at 37° C. for 4 days, and the plate was then placed at room temperature for 30 minutes. CellTiter-Glo (registered trademark) 2.0 assay (Promega) was added at 15 μL/well, mixed for 30 seconds, and the plate was placed for approximately 1 hour. The luminescent signal was then measured by EnVision (PerkinElmer). The inhibitory effect of the test agents on RSV-induced CPE was calculated as 0% and 100% inhibition rate for each sample concentration based on the level of remaining viable cells by CellTiter-Glo (registered trademark) 2.0, with the EC50 value for each compound calculated by nonlinear regression as the concentration that inhibits RSV-induced CPE by 50%. In the case of evaluation against RSV type B, RSV B (Wash/18537 strain) was infected in the same manner as the type A, cultured for 5 days, and quantitated in the same manner as for the A2 strain.
In general terms: Cytopathic effects are the visible damage that an infection or toxin causes in cultured cells.
On to `CN1CCC2(CC1)CN(c1ncc(C(=O)NC3(C(=O)O)CCCCC3)c(C(F)(F)F)n1)c1ccc(OCCC3CCOCC3)cc12` [Compound I-62], for which the EC50 was < 10 nM. In turn, `O=C(NC1(C(=O)O)CCCCC1)c1cnc(N2CC3(CCNCC3)c3cc(OCCC4CCOCC4)ccc32)nc1C(F)(F)F` [Compound I-89] showed an EC50 of 100 to 5000 nM.

Staying with this assay, now noted: human respiratory syncytial virus; inhibitory effect against RSV type A (RSV A2 strain), HEp-2 cells, CPE inhibition; read-out: EC50.
`CCNC(=O)N1CCC2(CC1)CN(c1ncc(C(=O)NC3(C(=O)O)C4CC5CC(C4)CC3C5)c(C(F)(F)F)n1)c1ccc(C)cc12` (stereo not drawn) [Compound I-138]: the EC50 is < 10 nM. Same read-out and setting: the value for `Cn1ccc(CCOc2ccc3c(-c4ncc(C(=O)NC5(C(=O)O)C6CC7CC(C6)CC5C7)c(C(F)(F)F)n4)cn(C4CCC(F)(F)CC4)c3c2)n1` (stereo not drawn) [Compound I-366] was < 10 nM; that for `O=C(NC1(C(=O)O)CCCCC1)c1cnc(N2CCc3cc(OCCNc4ncccn4)ccc32)nc1C(F)(F)F` [Compound I-52] was 10 to 100 nM. Still for that read-out and setting: the result for `COc1cc(COc2ccc3c(c2)CCN3c2ncc(C(=O)NC3(C(=O)O)CCCCC3)c(C(F)(F)F)n2)cc(OC)c1` [Compound I-29] reads < 10 nM; that for `O=C(NC1(C(=O)O)CCCC1)c1cnc(N2CCc3cc(OC4CCN(c5ncccn5)CC4)ccc32)nc1C(F)(F)F` [Compound I-48], < 10 nM. Still for that read-out and setting: the result for `COc1cccc(CNc2ccc3c(c2)CCN3c2ncc(C(=O)NC3(C(=O)O)CCCCC3)c(C(F)(F)F)n2)c1` [Compound I-40] reads < 10 nM; that for `O=C(NC1(C(=O)O)CCNCC1)c1cnc(N2CC3(CCOCC3)c3cc(OC4CCN(c5ncccn5)CC4)ccc32)nc1C(F)(F)F` [Compound I-144], 100 to 5000 nM; that for `O=C(N[C@@]1(C(=O)O)[C@@H]2C[C@@H]3C[C@H]1C[C@@](F)(C3)C2)c1cnc(N2CCc3cc(OCCC4CCOCC4)ccc32)nc1C(F)(F)F` [Compound I-163], < 10 nM.

For `O=C(NC1(C(=O)O)C2CC3CC(C2)CC1C3)c1cnc(-c2cn(C3CCC(F)(F)CC3)c3cc(OC4CCN(c5ncc(F)cc5F)CC4)ccc23)nc1C(F)(F)F` (stereo not drawn) [Compound I-432], the EC50 is < 10 nM.

For `O=C(NC1(C(=O)O)C2CC3CC(C2)CC1C3)c1ccc(-c2cn(C3CCOCC3)c3cc(OC4CCN(c5ncccn5)CC4)c(F)cc23)nc1C(F)(F)F` (stereo not drawn) [Compound I-222], the EC50 was < 10 nM.

As for `Cc1nc(COc2ccc3c(c2)CCN3c2ncc(C(=O)NC3(C(=O)O)CCCCC3)c(C(F)(F)F)n2)cs1` [Compound I-28], the EC50 lay within 10 to 100 nM. Regarding `O=C(NC1(C(=O)O)C2CC3CC(C2)CC1C3)c1cnc(N2CC3(CCCCC3)c3cc(O[C@H]4CC[C@@H](ON=C5CC(F)(F)C5)CC4)ccc32)nc1C(F)(F)F` (stereo partly drawn) [Compound I-461], the 50% effective concentration (EC50) fell in the range of 10 to 100 nM.

With `O=C(NC1(C(=O)O)C2CC3CC(C2)CC1C3)c1cnc(N2CC3(CCOCC3)c3cc(-n4ncc5cccnc54)ccc32)nc1C(F)(F)F` (stereo not drawn) [Compound I-471], the concentration giving a half-maximal response (EC50) was < 10 nM.

Consider `O=C(NC1(C(=O)O)C2CC3CC(C2)CC1C3)c1cnc(N2CC3(CCOCC3)c3cc(F)ccc32)nc1C(F)(F)F` (stereo not drawn) [Compound I-284], for which the EC50 was < 10 nM.

For `O=C(NC1(C(=O)O)C2CC3CC(C2)CC1C3)c1ccc(-c2cn([C@H]3CC[C@@H](C(F)(F)F)CC3)c3cc(OC4CCN(c5ncccn5)CC4)ccc23)nc1C(F)(F)F` (stereo partly drawn) [Compound I-285], the EC50 is < 10 nM.

In the case of `O=C(NC1(C(=O)O)CC2CCC1C2)c1cnc(N2CCc3cc(OCCC4CCOCC4)ccc32)nc1C(F)(F)F` (stereo not drawn) [Compound I-12], the concentration giving a half-maximal response (EC50) was < 10 nM. Still for that read-out and setting: the value for `O=C(NC1(C(=O)O)C2CC3CC(C2)CC1C3)c1ccc(-c2cn(-c3ccc(F)cc3)c3cc(OC4CCN(c5ncccn5)CC4)ccc23)nc1C(F)(F)F` (stereo not drawn) [Compound I-389] was < 10 nM; that for `COc1ccc2c(n1)C1(CCOCC1)CN2c1ccc(C(=O)NC2(C(=O)O)C3CC4CC(C3)CC2C4)c(C(F)(F)F)n1` (stereo not drawn) [Compound I-120] was < 10 nM.

As for `Cn1ccnc1N1CCC(Oc2ccc3c(c2)CCN3c2ncc(C(=O)NC3(C(=O)O)CCCCC3)c(C(F)(F)F)n2)CC1` [Compound I-207], the EC50 was in the range of 10 to 100 nM. Take `O=C(NC1(C(=O)O)C2CC3CC(C2)CC1C3)c1ccc(-c2cn(-c3ccc(F)cn3)c3cc(OC4CCN(c5ncccn5)CC4)ccc23)nc1C(F)(F)F` (stereo not drawn) [Compound I-290]: the EC50 was < 10 nM. Still for that read-out and setting: the result for `N#C[C@H]1CC[C@H](n2cc(-c3ccc(C(=O)NC4(C(=O)O)C5CC6CC(C5)CC4C6)c(C(F)(F)F)n3)c3ccc(OC4CCN(c5ncccn5)CC4)cc32)CC1` (stereo partly drawn) [Compound I-185] reads < 10 nM; that for `N#C[C@H]1CC[C@@H](n2cc(-c3ccc(C(=O)NC4(C(=O)O)C5CC6CC(C5)CC4C6)c(C(F)(F)F)n3)c3ccc(OC4CCN(c5ncccn5)CC4)cc32)CC1` (stereo partly drawn) [Compound I-186], < 10 nM. For `Cc1ccc2c(c1)C1(CCOCC1)CN2c1ccc(C(=O)NC2(C(=O)O)C3CC4CC(C3)CC2C4)c(C(F)(F)F)n1` (stereo not drawn) [Compound I-122], the 50% effective concentration (EC50) was < 10 nM. Same read-out and setting: the value for `COc1ccc2c(c1)C1(CCOCC1)CN2c1nc(CCCO)c(C(=O)NC2(C(=O)O)C3CC4CC(C3)CC2C4)c(C(F)(F)F)n1` (stereo not drawn) [Compound I-187] was 10 to 100 nM. Same read-out and setting: the result for `CC1CN(CC(F)(F)F)CCC1Oc1ccc2c(-c3ncc(C(=O)NC4(C(=O)O)C5CC6CC(C5)CC4C6)c(C(F)(F)F)n3)cn(C3CCC(F)(F)CC3)c2c1` (stereo not drawn) [Compound I-403] reads < 10 nM. Still for that read-out and setting: the value for `O=C(NC1(C(=O)O)CCCCC1)c1cnc(N2CCc3cc(OC4CCN(c5cccnc5)CC4)ccc32)nc1C(F)(F)F` [Compound I-51] was 10 to 100 nM; that for `NC(=O)C1CC1c1ccc2c(c1)CCN2c1ncc(C(=O)NC2(C(=O)O)C3CC4CC(C3)CC2C4)c(C(F)(F)F)n1` (racemic) [Compound I-215] was 10 to 100 nM. Take `O=C(NC1(C(=O)O)C2CC3CC(C2)CC1C3)c1cnc(N2CC3(CCOCC3)c3cc(Nc4ccccn4)ccc32)nc1C(F)(F)F` (stereo not drawn) [Compound I-280]: the EC50 is < 10 nM. In the case of `O=C(NC1(C(=O)O)C2CC3CC(C2)CC1C3)c1cnc(-c2cn(C3CCC(F)(F)CC3)c3cc(CN4CCC(N5CC(F)(F)C5)CC4)ccc23)nc1C(F)(F)F` (stereo not drawn) [Compound I-417], the EC50 is < 10 nM. As to `O=C(NC1(C(=O)O)C2CC3CC(C2)CC1C3)c1ccc(-c2cn(CC(F)(F)F)c3cc(OC4CCN(c5ncccn5)CC4)ccc23)nc1C(F)(F)F` (stereo not drawn) [Compound I-252], the EC50 is < 10 nM.

For `O=C(NC1(C(=O)O)C2CC3CC(C2)CC1C3)c1cnc(-c2cn(C3CCC(F)(F)CC3)c3cc(O[C@H]4CCN(c5ncc(F)cn5)C4)ccc23)nc1C(F)(F)F` (stereo partly drawn) [Compound I-377], the concentration giving a half-maximal response (EC50) is < 10 nM. Same read-out and setting: the result for `O=C(NC1(C(=O)O)C2CC3CC(C2)CC1C3)c1cnc(-c2cn(C3CCC(F)(F)CC3)c3cc(OC4CCN(c5ncccn5)CC4F)ccc23)nc1C(F)(F)F` (stereo not drawn) [Compound I-371] reads < 10 nM.

The assay is the same for the next values; noted with them: inhibitory effect against RSV type A (RSV A2 strain), HEp-2 cells, CPE inhibition; read-out: EC50.
`O=C(NC1(C(=O)O)C2CC3CC(C2)CC1C3)c1cnc(N2CC3(CCN(C4COC4)C3)c3cc(OC4CCN(c5ncccn5)CC4)ccc32)nc1C(F)(F)F` (racemic) [Compound I-333]: the EC50 is < 10 nM. Same read-out and setting: the result for `O=C(NC1(C(=O)O)C2CC3CC(C2)CC1C3)c1cnc(N2CC3(CCOCC3)c3nc(OCCC4CCOCC4)ccc32)nc1C(F)(F)F` (stereo not drawn) [Compound I-105] reads < 10 nM; that for `O=C(NC1(C(=O)O)C2CC3CC(C2)CC1C3)c1cnc(N2CC3(CCOCC3)c3cc(CN4CCC5(CC4)COC5)ccc32)nc1C(F)(F)F` (stereo not drawn) [Compound I-352], 10 to 100 nM; that for `COc1cccc(COc2ccc3c(n2)C2(CCOCC2)CN3c2ncc(C(=O)NC3(C(=O)O)C4CC5CC(C4)CC3C5)c(C(F)(F)F)n2)c1` (stereo not drawn) [Compound I-104], < 10 nM. As for `CCNC(=O)N1CCC2(C1)CN(c1ncc(C(=O)NC3(C(=O)O)C4CC5CC(C4)CC3C5)c(C(F)(F)F)n1)c1ccc(OC3CCN(c4ncccn4)CC3)cc12` (racemic) [Compound I-364], the EC50 is < 10 nM. As to `O=C(NC1(C(=O)O)C2CC3CC(C2)CC1C3)c1cnc(N2CC3(CCOCC3)c3cc(C4=CCCN(c5ncccn5)C4)ccc32)nc1C(F)(F)F` (stereo not drawn) [Compound I-349], the half-maximal effective concentration (EC50) was < 10 nM. With `O=C(NC1(C(=O)O)C2CC3CC1CC(O)(C3)C2)c1cnc(N2CCc3cc(OCCC4CCOCC4)ccc32)nc1C(F)(F)F` (single isomer, unassigned) [Compound I-97], the EC50 was 10 to 100 nM.

In the case of `O=C(NC1(C(=O)O)C2CC3CC(C2)CC1C3)c1cnc(N2CC3(CCOCC3)c3cc(C(F)(F)F)ccc32)nc1C(F)(F)F` (stereo not drawn) [Compound I-307], the EC50 was < 10 nM. In the case of `O=C(NC1(C(=O)O)C2CC3CC(C2)CC1C3)c1ccc(N2CC3(CCOCC3)c3cc(OC4CCN(c5ncccn5)CC4)ccc32)nc1C(F)(F)F` (stereo not drawn) [Compound I-102], the EC50 is < 10 nM. For the molecule `O=C(NC1(C(=O)O)C2CC3CC(C2)CC1C3)c1ccc(-c2cn(-c3ccccc3C(F)(F)F)c3cc(OC4CCN(c5ncccn5)CC4)ccc23)nc1C(F)(F)F` (stereo not drawn) [Compound I-327], the EC50 is < 10 nM. Regarding `COc1cccc(COc2ccc3c(c2)CCN3c2ncc(C(=O)NC3(C(=O)O)CC4CCC3C4)c(C(F)(F)F)n2)c1` (single isomer, unassigned) [Compound I-19], the concentration giving a half-maximal response (EC50) is < 10 nM.

By EC50 is commonly meant the concentration at which the effect is half-maximal.
